The numbers were not newly measured in patent US20140303119A1, “METHODS, APPARATUS, AND COMPOUNDS FOR THE TREATMENT OF CENTRAL RETINAL VEIN OCCLUSION AND OTHER CONDITIONS” (DiLorenzo Biomedical, LLC, priority 2013, published 2014), which cites them from elsewhere.

In series [1] the test system is retinal vein occlusion. As to conditions: patients with retinal vein occlusion, troxerutin versus placebo.
Series [2] has as its system CRVO. As to conditions: review statement, evidence limited (level B, III).
For series [3], the system named is central retinal vein occlusion.
Series [4] concerns thrombosis of the central retinal vein. To be noted: given intravenously, small randomized clinical study.
Series [5] has as its system patients with CRVO. To be noted: 96 patients with CRVO.

For `C[C@@H]1O[C@@H](OC[C@H]2O[C@@H](Oc3c(-c4ccc(OCCO)c(OCCO)c4)oc4cc(OCCO)cc(O)c4c3=O)[C@H](O)[C@@H](O)[C@@H]2O)[C@H](O)[C@H](O)[C@H]1O` [troxerutin], in series [1], the “macular edema versus placebo” value was “improvement”, the “retinal circulation time versus placebo” value is on record as “improvement” and the “visual acuity versus placebo” value is reported as “improvement”. In addition, the “outcome of CRVO” value in series [2] is reported as “trend for improvement”.
For `Clc1ccccc1CN1CCc2sccc2C1` [Ticlodipine], the “incidence of very serious hematological toxicity, including neutropenia, thrombocytopenia, and aplastic anemia” value (patients, requires regular monitoring) is on record as 0.5%-3%.
Turning to `COC(=O)[C@H](c1ccccc1Cl)N1CCc2sccc2C1` [Clopidrogel, (+)-(S)-methyl 2-(2-chlorophenyl)-2-(6,7-dihydrothieno[3,2-c]pyridin-5(4H)-yl)acetate], the “incidence of blood disorders compared with ticlodipine” value (no need for regular monitoring) is “reduced incidence of blood disorders”.
Turning to Streptokinase, in series [3] (treated group (continuous infusion followed by warfarin), control group 12 of 20), the “patients showing deterioration in vision” value is 5 of 20. For the same compound, the “patients experiencing massive vitreous hemorrhage with persistence of blindness in those eyes” value in series [3] (treated group, within 72 hours) is on record as 3 of 20.
As to `CCCCC[C@H](O)/C=C/[C@@H]1[C@H]2C/C(=C/CCCC(=O)O)O[C@H]2C[C@H]1O` [Prostacyclin], in series [4], the “progression to neovascularization versus placebo” value is “no significant difference” and the “visual acuity versus placebo” value is given as “no significant difference”.
As to “Tissue plasminogen activator (tPA): Tissue plasminogen activator, fibrinolytic therapy”, in series [5], the fatal stroke was 1 patient and the severe intraocular bleeding was 3 patients.
